Laboratory results from PubChem BioAssay AID1845209 (Molecular Pharmacology Branch, DTP, NCI, 2023).
pIC50: −log10 of the molar value.

System: NCI-H211 tumor spheroids, viability percent test/control
Assay: Anticancer human tumor NCI-H211 cell line growth inhibition;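 further: spheroids exposed to agents for seven days before readout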
Conditions: spheroids with HUVEC and MSC; for pIC50: curve of first compound; for viability, T/C: stronger effect = lower value
From the text: Multicellular complex tumor spheroid response to DNA repair inhibitors in combination with DNA-damaging drugs
This study explores the anticancer activities of DNA-damaging drugs and inhibitors of DNA damage repair, both as single agents and in combinations. Complex tumor spheroids comprised of malignant cells, endothelial cells and mesenchymal stem cells served as an in vitro model for human solid tumors. This model system incorporates physiologically relevant features and patient-derived or established malignant cell lines with clinically relevant genetic alterations from many tumor types. Twenty-six patient-derived or established malignant cell lines were evaluated representing sarcoma, melanoma, small cell lung cancer (SCLC), non-small cell lung cancer (NSCLC), as well as bladder, ovarian and pancreatic cancers. The concentration ranges selected for each drug and investigational agent were based upon clinically achievable concentrations if the clinical Cmax of the agent was known.
Compounds. The drugs and compounds olaparib (NSC753686), talazoparib (NSC767125), berzosertib (NSC777718), elimusertib (NSC800525), nedisertib (NSC802822), VX-984 (NSC792969), AZD-1390 (NSC803789), temozolomide (NSC362856), topotecan (NSC609699), trabectedin (NSC813783), staurosporine (NSC755774), and gemcitabine (NSC613327) were obtained from the National Cancer Institute (NCI) Developmental Therapeutics Program Chemical Repository. The FDA-approved anticancer drug set is available from the Developmental Therapeutics Program at https://dtp.cancer.gov/organization/dscb/obtaining/available_plates.htm. […] The stock solutions were prepared in dimethyl sulfoxide (DMSO, Sigma-Aldrich, St. Louis, MO, cat. D2650) at 400-fold the tested concentration and stored at -70 degrees C. Prior to their use, the stock solutions were diluted in fresh medium and the final DMSO concentration in the assay was 0.25% (v/v). All drugs and investigational agents were tested over a range starting from a high concentration at or near the clinical Cmax and decreasing in half-log increments. If the clinical Cmax for an agent had not been determined, the highest concentration tested was 10 microM.
Cell Lines. The patient-derived cancer cell (PDC) lines: 156681-154-R-J1-PDC, 283228-195-R-J1-PDC, 287954-098-R-J1-PDC, 292921-168-R-J2-PDC, 349418-098-R-PDC, 425362-245-T-J1-PDC, 556581-035-R-J1-PDC, and BL0293-F563-PDC were received from the NCI Patient-Derived Models Repository (PDMR, https://pdmr.cancer.gov). The established cell lines HS-SY-2 (RRID:CVCL_8719), MPNST, and SYO-1 (RRID:CVCL_7146) were obtained from the Sloan Kettering Institute. The alveolar soft parts sarcoma cell line ASPS-1 (RRID:CVCL_S738) was established at the NCI and grown from internal seed stocks. The following established cell lines were purchased from the American Type Culture Collection (ATCC, Manassas, VA): G-401 (ATCC, cat. CRL-1441, RRID:CVCL_0270), SW982 (ATCC, cat. HTB-93, RRID:CVCL_1734), VA-ES-BJ (ATCC, cat. CRL-2138, RRID:CVCL_1785), NCI-H719 (ATCC, cat. CRL-5837, RRID:CVCL_1582), NCI-H196 (ATCC, cat. CRL-5823, RRID:CVCL_1509), NCI-H841 (ATCC, cat. CRL-5845, RRID:CVCL_1595), NCI-H1618 (ATCC, cat. CRL-5879, RRID:CVCL_1480), NCI-H1876 (ATCC, cat. CRL-5902, RRID:CVCL_1503), DMS 114 (ATCC, cat. CRL-2066; RRID:CVCL_1174), NCI-H211 (ATCC, cat. CRL-5824; RRID:CVCL_1529), and SW 1271 (ATCC, cat. CRL-2177, RRID:CVCL_1716). The small cell lung cancer cell line COR-L88 was purchased from Sigma-Aldrich (cat. 92031917-1VL, RRID:CVCL_1141). The non-small cell lung cancer cell lines NCI-H226 (RRID:CVCL_1544) and NCI-H322M (RRID:CVCL_1557) were established at the NCI and grown from internal seed stocks. Pooled donor human umbilical vein endothelial cells (HUVEC, Lonza, cat. CC-2519) and human mesenchymal stem cells (hMSC, Lonza, cat. PT-2501) were purchased from Lonza (Walkersville, MD).
Cell Culture. All cells were maintained in an incubator at 37 degrees C and 5% CO2 with 95% humidity. […]

[1] = second compound 0.003 µM, first compound 0.0949 µM
[2] = second compound 0.003 µM, first compound 0.3 µM
[3] = second compound 0.003 µM, first compound 0.949 µM
[4] = second compound 0.003 µM, first compound 3 µM
[5] = second compound 0.00949 µM, first compound 0.0949 µM
[6] = second compound 0.00949 µM, first compound 0.3 µM
[7] = second compound 0.00949 µM, first compound 0.949 µM
[8] = second compound 0.00949 µM, first compound 3 µM
[9] = second compound 0.03 µM, first compound 0.0949 µM
[10] = second compound 0.03 µM, first compound 0.3 µM
[11] = second compound 0.03 µM, first compound 0.949 µM
[12] = second compound 0.03 µM, first compound 3 µM
[13] = second compound 0.0949 µM, first compound 0.0949 µM
[14] = second compound 0.0949 µM, first compound 0.3 µM
[15] = second compound 0.0949 µM, first compound 0.949 µM
[16] = second compound 0.0949 µM, first compound 3 µM
[17] = second compound 0.3 µM, first compound 0.0949 µM
[18] = second compound 0.3 µM, first compound 0.3 µM
[19] = second compound 0.3 µM, first compound 0.949 µM
[20] = second compound 0.3 µM, first compound 3 µM

Row | Structure (SMILES) | pIC50 (second compound 0.003 µM) | pIC50 (second compound 0.00949 µM) | pIC50 (second compound 0.03 µM) | pIC50 (second compound 0.0949 µM) | pIC50 (second compound 0.3 µM) | viability, T/C [1] [%] | viability, T/C [2] [%] | viability, T/C [3] [%] | viability, T/C [4] [%] | viability, T/C [5] [%] | viability, T/C [6] [%] | viability, T/C [7] [%] | viability, T/C [8] [%] | viability, T/C [9] [%] | viability, T/C [10] [%] | viability, T/C [11] [%] | viability, T/C [12] [%] | viability, T/C [13] [%] | viability, T/C [14] [%] | viability, T/C [15] [%] | also measured
1 | Cn1ncnc1[C@H]1c2n[nH]c(=O)c3cc(F)cc(c23)N[C@@H]1c1ccc(F)cc1 + CC[C@@]1(O)C(=O)OCc2c1cc1n(c2=O)Cc2cc3c(CN(C)C)c(O)ccc3nc2-1 | > 8.02 | > 8.02 | > 8.02 | > 8.02 | > 8.02 | 1.05 | 1.13 | 1.18 | 1.13 | 1.24 | 1.21 | 1.11 | 1.49 | 1.25 | 1.13 | 1.14 | 1.06 | 1.17 | 1.17 | 1.1 | viability, T/C (second compound 0.003 µM, first compound 0.00949 µM): 1.01%; viability, T/C (second compound 0.003 µM, first compound 0.03 µM): 1.19%; viability, T/C (second compound 0.00949 µM, first compound 0.00949 µM): 1.17%; viability, T/C (second compound 0.00949 µM, first compound 0.03 µM): 1.18%; viability, T/C (second compound 0.03 µM, first compound 0.00949 µM): 0.91%; viability, T/C (second compound 0.03 µM, first compound 0.03 µM): 1.11%; viability, T/C (second compound 0.0949 µM, first compound 0.00949 µM): 1.14%; viability, T/C (second compound 0.0949 µM, first compound 0.03 µM): 1.25%; viability, T/C [16]: 1.34%; viability, T/C (second compound 0.3 µM, first compound 0.00949 µM): 1.06%; viability, T/C (second compound 0.3 µM, first compound 0.03 µM): 1.01%; viability, T/C [17]: 1.1%; viability, T/C [18]: 1.37%; viability, T/C [19]: 1.05%; viability, T/C [20]: 1.06%
2 | O=C(c1cc(Cc2n[nH]c(=O)c3ccccc23)ccc1F)N1CCN(C(=O)C2CC2)CC1 + CC[C@@]1(O)C(=O)OCc2c1cc1n(c2=O)Cc2cc3c(CN(C)C)c(O)ccc3nc2-1 | > 7.02 | > 7.02 | > 7.02 | > 7.02 | > 7.02 | 9.62 | 3.33 | 1.25 | 1.06 | 1.09 | 1.14 | 1.15 | 1.2 | 1.07 | 1.19 | 1.2 | 1.12 | 1.07 | 1.03 | 1.31 | viability, T/C (second compound 0.003 µM, first compound 9.49 µM): 0.76%; viability, T/C (second compound 0.003 µM, first compound 30 µM): 0.99%; viability, T/C (second compound 0.00949 µM, first compound 9.49 µM): 1.06%; viability, T/C (second compound 0.00949 µM, first compound 30 µM): 0.96%; viability, T/C (second compound 0.03 µM, first compound 9.49 µM): 0.99%; viability, T/C (second compound 0.03 µM, first compound 30 µM): 0.78%; viability, T/C [16]: 1.37%; viability, T/C (second compound 0.0949 µM, first compound 9.49 µM): 0.98%; viability, T/C (second compound 0.0949 µM, first compound 30 µM): 1.09%; viability, T/C [17]: 1.03%; viability, T/C [18]: 1.25%; viability, T/C [19]: 1%; viability, T/C [20]: 1.05%; viability, T/C (second compound 0.3 µM, first compound 9.49 µM): 1%; viability, T/C (second compound 0.3 µM, first compound 30 µM): 0.91%
